According to patent publication US9708628B2, “Cationic lipid having improved intracellular kinetics” (NOF CORPORATION, priority 2011, dated 2017):

Legend:
[1] = Particle size and surface potential of siRNA MENDs prepared by t-BuOH injecting method; assay type: physicochemical; details: siRNA MEND, cationic lipid/cholesterol=70/30, DMG-PEG2000 3%
Protocol: (§1) A lipid solution in t-BuOH with a composition of cationic lipid/cholesterol=70/30, DMG-PEG2000 3% and a total lipid amount of 3000 nmol/400 μL (7.5 mM) was prepared in a 1.7 mL tube. In a separate 1.7 mL tube, an siRNA solution was prepared by mixing an siRNA aqueous solution containing siRNA (160 μg) and 20 mM malate buffer (pH 4.00, 30 mM NaCl) to total 50 μL. With vigorous stirring of the lipid solution, the siRNA solution was gradually added dropwise, and the mixed solution was taken in a 1 mL syringe. Then, 20 mM malate buffer (pH 4.00, 30 mM NaCl, 2 mL) was added into a 5 mL tube, and the mixed solution was gradually injected with vigorous stirring. Thereafter, the mixture was further diluted with PBS (7 mL) and centrifuged at 1000 g, 30° C. for 10 min in Amicon Ultra-15-100K to a volume of less than 1.5 mL. PBS (15 mL) was added, and the solution was centrifuged again to about 500-1000 μL. Finally, the MEND solution was adjusted by diluting with PBS to the object lipid concentration.
The particle size and surface potential of various MENDs were measured according to the method described in [Experimental Example 2] and the results are shown in Table 6.

Factor VII (FVII) [2] = experiment: Knockdown effect of siRNA-encapsulated MEND prepared by t-BuOH injecting method; assay type: in vivo, ICR mice; details: varying doses of siRNA, tail vein
Protocol: A MEND solution prepared by the method shown in [Experimental Example 28] was administered to 4-week-old male ICR mice at 3 mg siRNA/kg from the tail vein, and blood was collected 24 hr later. This blood sample was centrifuged at 1000 g, 10 min, 4° C., and the supernatant was recovered to obtain plasma. The amount of Factor VII (FVII) in the plasma was quantified by BIOPHEN FVII CHROMOGENIC ASSAY (HYPHEN BioMed).
as §1
MENDs prepared by the method shown in Experimental Example 32 were administered by a method similar to the method shown in Experimental Example 30 with varying doses of siRNA, and the knockdown effect was evaluated. The results are shown in FIG. 35, FIG. 36, and FIG. 37.

Factor VII (FVII) [3] = experiment: Knockdown effect of chemically-modified siRNA-encapsulated MEND; assay type: in vivo, ICR mice
Protocol: A MEND (Lipid/siRNA ratio=250) prepared using the compound of Example 13 and by the method shown in Experimental Example 32, and a MEND having the ratio of lipid and siRNA of Lipid/siRNA ratio=2250 were prepared. Furthermore, of Lipid/siRNA ratio=2250, MENDs wherein siRNA was replaced by chemically-modified one (2′-F) were prepared, and the knockdown effect was evaluated by the method shown in Experimental Example 33.

Compound	PDI [1]	size (nm) [1]	zeta (mV) [1]	FVII expression level (knockdown effect) (Factor VII (FVII) [2])	knockdown effect with chemically-modified siRNA (2′-F) (Factor VII (FVII) [3]; Lipid/siRNA ratio=2250)	knockdown effect, Lipid/siRNA ratio 2250 versus 250 (Factor VII (FVII) [3]; unmodified siRNA)
Cc1c(C)c2c(c(C)c1OC(=O)CCC(=O)OCCCC1CCN(CCSSCCN3CCC(CCCOC(=O)CCC(=O)Oc4c(C)c(C)c5c(c4C)CCC(C)(CCCC(C)CCCC(C)CCCC(C)C)O5)CC3)CC1)CCC(C)(CCCC(C)CCCC(C)CCCC(C)C)O2 (stereo not shown) [TS-P4C3]	0.09	123 nm	−6.6 mV	highest knockdown effect	–	–
Cc1c(C)c2c(c(C)c1OC(=O)CCC(=O)OCCCCC1CCN(CCSSCCN3CCC(CCCCOC(=O)CCC(=O)Oc4c(C)c(C)c5c(c4C)CCC(C)(CCCC(C)CCCC(C)CCCC(C)C)O5)CC3)CC1)CCC(C)(CCCC(C)CCCC(C)CCCC(C)C)O2 (stereo not shown) [TS-P4C4]	0.11	123 nm	−6.9 mV	highest knockdown effect	further enhanced the knockdown effect	knockdown effect was enhanced
